Values quoted from earlier work in patent publication US20030144252A1, “Combination product comprising a non-steroidal antiandrogen and an egfr tyrosine kinase inhibitor” (priority 2000, published 2003).

Columns and labels:
[1] = test system: LNCaP prostate cancer cell line
androgen receptor = conditions: LNCaP prostate cancer cell line

Row | block of HER2/neu protein induced activation of the androgen receptor (androgen receptor) | SMILES | block of EGF induced cell growth [1]
1 |  | CC(O)(CS(=O)(=O)c1ccc(F)cc1)C(=O)Nc1ccc(C#N)c(C(F)(F)F)c1 (centres unmarked) [bicalutamide, 4′-cyano-3-(4-fluorophenylsulphonyl)-2-hydroxy-2-methyl-3′-(trifluoromethyl)propionanilide] | could partially block
2 | could partially block | CC(C)(O)C(=O)Nc1ccc([N+](=O)[O-])c(C(F)(F)F)c1 [hydroxyflutamide] | 
